# Test results from PMC6110851, “An Optimized MicroPET Imaging Method for the Distribution and Synergies of Natural Products” (Frontiers in Pharmacology, 2018).
# Tests used:
# [1] = Safety evaluation during the MicroPET experiment (vital signs, electrocardiograms); type: in vivo, mice
# [2] = MicroPET biodistribution of [^18F]-GA in mice; type: in vivo; conditions: for time to peak in organ: after injection
# Procedure: The mice were grouped by weight and housed in cages of the climate control room (25°C), with a photoperiod 12:12-h. During feeding, mice were free to access food and water. Mice were fasted for 24 h before the experiment. The mice were anesthetized with 4% isoflurane while preparing for scanning ([Constantinescu et al., 2013b]; [Cui et al., 2017]). Eighteen healthy male Kunming mice, weighing 20 ± 2 g, were divided into three groups, which were control group, once-administered (OA) group and long-term administration (LA) group. In the OA group, 1 h before the administration of [^18F]-GA, the mice were orally treated with PG polysaccharides. In the LA group, the mice were orally given the PG polysaccharides for 7 days, but not before the administration of [^18F]-GA.
# Rice received a tail vein injection (8.67 ± 2.14 MBq/μg) of [^18F]-GA and placed in the scanner bed and mouse-imaging room immediately ([Constantinescu et al., 2013b]; [O’Doherty et al., 2017]). Firstly, 2 h PET scanning was performed using an Inveon-dedicated PET scanner. The average delay between injection and starting of PET scanning was 3.5 min. Rice were maintained stable under 4% isoflurane anesthesia throughout scanning. The PET list-mode data were dynamically classified into 23 3D sinograms of span and three ring difference. After Fourier recombination, the data were reconstructed using a 2D ordered-subset expectation maximization algorithm. Random events were excluded before reconstruction. The response of detector is normalized using a component-based approach. All dynamic images were corrected for radioactive decay automatically. The PET images were reconstructed by a cone beam algorithm into 480 × 480 × 632 image arrays. After the reconstruction, images were spatially transformed to match the PET images ([Constantinescu et al., 2013a],[b]).
# The reconstruction of the image was performed using the PMOD software (PMOD Technologies). The 3D volumes of interest (VOIs) were drawn manually of the following organs: brain, heart, liver, lungs, kidneys, cortical bone, and gallbladder. The organs were carefully identified and VOIs were drawn as irregular contours on high-resolution PET images obtained from each mouse ([Constantinescu et al., 2013b]; [Garg et al., 2017]). The size of each VOI was less than the actual size of each organ to minimize the effects of PET on adjacent organ spills. The VOIs drawing was verified by a second operator. The VOIs of cortical bone were generated by first using PET image to depict the entire femur bone ([Constantinescu et al., 2013b]). The VOI was transferred to a dynamic PET image and the mean time-activity curve (TAC) of the decay correction was extracted for each target organ ([Constantinescu et al., 2013b]).
# [3] = mice, tail vein injection, Time(s) 60
# [4] = mice, tail vein injection, Time(s) 180
# [5] = mice, tail vein injection, Time(s) 300
# [6] = mice, tail vein injection, Time(s) 420
# [7] = mice, tail vein injection, Time(s) 660
# [8] = mice, tail vein injection, Time(s) 780
# [9] = mice, tail vein injection, Time(s) 900
# [10] = mice, tail vein injection, Time(s) 1020
# [11] = mice, tail vein injection, Time(s) 1140
# [12] = mice, tail vein injection, Time(s) 1350
# [13] = mice, tail vein injection, Time(s) 1650
# [14] = mice, tail vein injection, Time(s) 1950
# [15] = mice, tail vein injection, Time(s) 2250
# [16] = mice, tail vein injection, Time(s) 2700
# [17] = mice, tail vein injection, Time(s) 3300
# [18] = mice, tail vein injection, Time(s) 3900
# [19] = mice, tail vein injection, Time(s) 4500
# [20] = mice, tail vein injection, Time(s) 5100
# [21] = mice, tail vein injection, Time(s) 5700
# [22] = mice, tail vein injection, Time(s) 6300
# [23] = mice, tail vein injection, Time(s) 6900
structure (smiles),measurement,setting,value
"CC1(C)[C@@H](O)CC[C@]2(C)[C@H]3C(=O)C=C4[C@@H]5C[C@@](C)(C(=O)NCCCC[18F])CC[C@]5(C)CC[C@@]4(C)[C@]3(C)CC[C@@H]12 [[^18F]-GA, [^18F]-Glycyrrhetinic acid]",change in vital signs or electrocardiograms,[1],no change in vital signs or electrocardiograms significantly
same,organ of highest uptake,[2]; all mice,highest uptake was found in the liver
same,time to peak in organ,"[2]; gallbladder, mice, maintained on the peak",30 min
same,time to peak in organ,"[2]; heart, lung, and kidney, mice",immediately reached a peak
same,time to peak in organ,"[2]; liver, mice",7 min
same,brain concentrations,"[2]; mice, MicroPET 3-130 min",consistently low
same,route of excretion of radioactivity,"[2]; mice, radiotracer found in the gallbladder",excreted via the biliary
same,Organs (%ID/g) Brain,[2]; [3],1.19 %ID/g
same,Organs (%ID/g) Gallbladder,[2]; [3],11.19 %ID/g
same,Organs (%ID/g) Heart,[2]; [3],12.13 %ID/g
same,Organs (%ID/g) Kidney,[2]; [3],9.67 %ID/g
same,Organs (%ID/g) Liver,[2]; [3],13.03 %ID/g
same,Organs (%ID/g) Brain,[2]; [4],0.79 %ID/g
same,Organs (%ID/g) Gallbladder,[2]; [4],14.59 %ID/g
same,Organs (%ID/g) Heart,[2]; [4],6.52 %ID/g
same,Organs (%ID/g) Kidney,[2]; [4],8.98 %ID/g
same,Organs (%ID/g) Liver,[2]; [4],17.00 %ID/g
same,Organs (%ID/g) Brain,[2]; [5],0.73 %ID/g
same,Organs (%ID/g) Gallbladder,[2]; [5],19.88 %ID/g
same,Organs (%ID/g) Heart,[2]; [5],4.75 %ID/g
same,Organs (%ID/g) Kidney,[2]; [5],7.13 %ID/g
same,Organs (%ID/g) Liver,[2]; [5],16.13 %ID/g
same,Organs (%ID/g) Heart,[2]; [6],4.07 %ID/g
same,Organs (%ID/g) Kidney,[2]; [6],6.26 %ID/g
same,Organs (%ID/g) Liver,[2]; [6],14.94 %ID/g
same,Organs (%ID/g) Brain,[2]; [7],0.58 %ID/g
same,Organs (%ID/g) Gallbladder,[2]; [7],26.93 %ID/g
same,Organs (%ID/g) Heart,[2]; [7],3.50 %ID/g
same,Organs (%ID/g) Kidney,[2]; [7],5.00 %ID/g
same,Organs (%ID/g) Liver,[2]; [7],12.33 %ID/g
same,Organs (%ID/g) Lung,[2]; [7],2.45 %ID/g
same,Organs (%ID/g) Brain,[2]; [8],0.61 %ID/g
same,Organs (%ID/g) Gallbladder,[2]; [8],29.01 %ID/g
same,Organs (%ID/g) Heart,[2]; [8],3.33 %ID/g
same,Organs (%ID/g) Kidney,[2]; [8],4.73 %ID/g
same,Organs (%ID/g) Liver,[2]; [8],11.32 %ID/g
same,Organs (%ID/g) Brain,[2]; [9],0.54 %ID/g
same,Organs (%ID/g) Gallbladder,[2]; [9],30.51 %ID/g
same,Organs (%ID/g) Kidney,[2]; [9],4.52 %ID/g
same,Organs (%ID/g) Liver,[2]; [9],10.43 %ID/g
same,Organs (%ID/g) Brain,[2]; [10],0.56 %ID/g
same,Organs (%ID/g) Gallbladder,[2]; [10],33.20 %ID/g
same,Organs (%ID/g) Heart,[2]; [10],3.03 %ID/g
same,Organs (%ID/g) Kidney,[2]; [10],4.23 %ID/g
same,Organs (%ID/g) Liver,[2]; [10],9.66 %ID/g
same,Organs (%ID/g) Brain,[2]; [11],0.52 %ID/g
same,Organs (%ID/g) Gallbladder,[2]; [11],34.49 %ID/g
same,Organs (%ID/g) Heart,[2]; [11],2.92 %ID/g
same,Organs (%ID/g) Kidney,[2]; [11],4.04 %ID/g
same,Organs (%ID/g) Liver,[2]; [11],9.05 %ID/g
same,Organs (%ID/g) Brain,[2]; [12],0.49 %ID/g
same,Organs (%ID/g) Gallbladder,[2]; [12],36.96 %ID/g
same,Organs (%ID/g) Kidney,[2]; [12],3.71 %ID/g
same,Organs (%ID/g) Liver,[2]; [12],8.34 %ID/g
same,Organs (%ID/g) Brain,[2]; [13],0.41 %ID/g
same,Organs (%ID/g) Gallbladder,[2]; [13],40.92 %ID/g
same,Organs (%ID/g) Heart,[2]; [13],2.67 %ID/g
same,Organs (%ID/g) Kidney,[2]; [13],3.30 %ID/g
same,Organs (%ID/g) Liver,[2]; [13],7.55 %ID/g
same,Organs (%ID/g) Brain,[2]; [14],0.42 %ID/g
same,Organs (%ID/g) Gallbladder,[2]; [14],42.68 %ID/g
same,Organs (%ID/g) Heart,[2]; [14],2.64 %ID/g
same,Organs (%ID/g) Liver,[2]; [14],6.96 %ID/g
same,Organs (%ID/g) Brain,[2]; [15],0.39 %ID/g
same,Organs (%ID/g) Gallbladder,[2]; [15],44.48 %ID/g
same,Organs (%ID/g) Heart,[2]; [15],2.82 %ID/g
same,Organs (%ID/g) Kidney,[2]; [15],2.79 %ID/g
same,Organs (%ID/g) Liver,[2]; [15],6.50 %ID/g
same,Organs (%ID/g) Brain,[2]; [16],0.42 %ID/g
same,Organs (%ID/g) Gallbladder,[2]; [16],43.79 %ID/g
same,Organs (%ID/g) Heart,[2]; [16],2.37 %ID/g
same,Organs (%ID/g) Kidney,[2]; [16],2.52 %ID/g
same,Organs (%ID/g) Liver,[2]; [16],5.90 %ID/g
same,Organs (%ID/g) Brain,[2]; [17],0.37 %ID/g
same,Organs (%ID/g) Gallbladder,[2]; [17],45.86 %ID/g
same,Organs (%ID/g) Heart,[2]; [17],2.43 %ID/g
same,Organs (%ID/g) Kidney,[2]; [17],2.22 %ID/g
same,Organs (%ID/g) Liver,[2]; [17],5.27 %ID/g
same,Organs (%ID/g) Brain,[2]; [18],0.37 %ID/g
same,Organs (%ID/g) Gallbladder,[2]; [18],46.86 %ID/g
same,Organs (%ID/g) Heart,[2]; [18],2.63 %ID/g
same,Organs (%ID/g) Liver,[2]; [18],4.83 %ID/g
same,Organs (%ID/g) Brain,[2]; [19],0.45 %ID/g
same,Organs (%ID/g) Gallbladder,[2]; [19],41.98 %ID/g
same,Organs (%ID/g) Heart,[2]; [19],2.11 %ID/g
same,Organs (%ID/g) Kidney,[2]; [19],1.92 %ID/g
same,Organs (%ID/g) Liver,[2]; [19],4.51 %ID/g
same,Organs (%ID/g) Brain,[2]; [20],0.38 %ID/g
same,Organs (%ID/g) Gallbladder,[2]; [20],39.31 %ID/g
same,Organs (%ID/g) Heart,[2]; [20],2.28 %ID/g
same,Organs (%ID/g) Kidney,[2]; [20],1.82 %ID/g
same,Organs (%ID/g) Liver,[2]; [20],4.27 %ID/g
same,Organs (%ID/g) Brain,[2]; [21],0.41 %ID/g
same,Organs (%ID/g) Gallbladder,[2]; [21],36.96 %ID/g
same,Organs (%ID/g) Heart,[2]; [21],1.96 %ID/g
same,Organs (%ID/g) Liver,[2]; [21],3.90 %ID/g
same,Organs (%ID/g) Brain,[2]; [22],0.46 %ID/g
same,Organs (%ID/g) Gallbladder,[2]; [22],39.06 %ID/g
same,Organs (%ID/g) Heart,[2]; [22],2.18 %ID/g
same,Organs (%ID/g) Kidney,[2]; [22],1.65 %ID/g
same,Organs (%ID/g) Liver,[2]; [22],3.82 %ID/g
same,Organs (%ID/g) Brain,[2]; [23],0.48 %ID/g
same,Organs (%ID/g) Gallbladder,[2]; [23],41.97 %ID/g
same,Organs (%ID/g) Heart,[2]; [23],2.64 %ID/g
same,Organs (%ID/g) Kidney,[2]; [23],1.59 %ID/g
same,Organs (%ID/g) Liver,[2]; [23],3.64 %ID/g
